{"source": "paper PMC5734940", "about": "(Toxicology and applied pharmacology, 2017)", "key": {"[1]": {"system": "Human iPSC-derived cardiomyocytes (iCell cardiomyocytes)", "assay_type": "cell-based"}, "[2]": {"system": "Human iPSC-derived cardiomyocytes (iCell cardiomyocytes)", "test": "Calcium flux assay", "settings": "for Effect on beat frequency (in words): at 10 and/or 30 μM, PAHs; for Typical phenotypic response of calcium-flux signal trace: 30 μM, after 30 minutes of exposure, Figure 3; for Ca2+-flux phenotype in words: text to Figure 3"}, "[3]": {"system": "Human iPSC-derived cardiomyocytes (iCell cardiomyocytes)", "settings": "for Cytotoxicity (in words): 24 hrs, concentrations up to 30 μM"}, "[4]": {"system": "Human iPSC-derived cardiomyocytes (iCell cardiomyocytes)", "settings": "30 min after treatment, JC-10"}, "[5]": {"settings": "at both short-term (30 min) and longer-term exposures (24 hrs)"}, "[6]": {"settings": "primarily at 24 hrs of exposure, Figure 5"}}, "note": "Where two headings read alike, the source gives them in different places."}
{"molecule": "C1=Cc2cccc3cccc1c23", "note": "[acenaphthylene, Acenaphthylene]", "values": [{"measurement": "Cardiotoxic selectivity for peak frequency (selective = ratio ≥3)", "setting": "[1]; [5]", "value": "selective"}, {"measurement": "Effect on beat frequency (in words)", "setting": "[2]", "value": "positive but generally weak effect"}]}
{"molecule": "c1ccc2cc3ccccc3cc2c1", "note": "[anthracene, Anthracene]", "values": [{"measurement": "Response in the Calcein AM readout", "setting": "[3]; [6]", "value": "positive response"}]}
{"molecule": "c1ccc2c(c1)c1cccc3ccc4cccc2c4c31", "note": "[benzo(e)pyrene, Benzo(e)pyrene]", "values": [{"measurement": "Typical phenotypic response of calcium-flux signal trace", "setting": "[2]", "value": "mild increases in peak frequency"}, {"measurement": "Effect on beat frequency (in words)", "setting": "[2]", "value": "positive but generally weak effect"}, {"measurement": "Response in the Calcein AM readout", "setting": "[3]; [6]", "value": "positive response"}]}
{"molecule": "c1cc2ccc3cccc4ccc(c1)c2c34", "note": "[pyrene, Pyrene]", "values": [{"measurement": "Cardiotoxic selectivity for peak frequency (selective = ratio ≥3)", "setting": "[1]; [5]", "value": "selective"}, {"measurement": "Effect on beat frequency (in words)", "setting": "[2]", "value": "positive but generally weak effect"}]}
{"molecule": "c1ccc2ccccc2c1", "note": "[naphthalene, Naphthalene]", "values": [{"measurement": "Effect on beat frequency (in words)", "setting": "[2]", "value": "positive but generally weak effect"}]}
{"molecule": "CCCCC(CC)COC(=O)c1ccccc1C(=O)OCC(CC)CCCC", "note": "(centres unmarked) [di(2-ethylhexyl) phthalate, Di(2-ethylhexyl) phthalate]", "values": [{"measurement": "Cardiotoxic selectivity for peak frequency (selective = ratio ≥3)", "setting": "[1]; [5]", "value": "selective"}]}
{"molecule": "C[n+]1ccc(-c2ccccc2)cc1.[I-]", "note": "[1-methyl-4-phenylpyridinium iodide, 1-Methyl-4-phenylpyridinium iodide (MPP+), reference compound]", "values": [{"measurement": "Cardiotoxic selectivity for peak frequency (selective = ratio ≥3)", "setting": "[1]; [5]", "value": "selective"}, {"measurement": "Ca2+-flux phenotype in words", "setting": "[2]", "value": "decrease in the peak frequency concomitant with an increase in the average peak width"}]}
{"molecule": "Cl[C@H]1[C@H](Cl)[C@@H](Cl)[C@@H](Cl)[C@H](Cl)[C@H]1Cl", "note": "[lindane, Lindane]", "values": [{"measurement": "Effect on mitochondria / mitochondria potential (in words)", "setting": "[4]", "value": "selectively decreased mitochondria potential"}]}
{"molecule": "CCCCCC", "note": "[n-hexane, n-Hexane]", "values": [{"measurement": "Effect on peak frequency (in words)", "setting": "[2]", "value": "altered peak frequency"}, {"measurement": "Response in the Calcein AM readout", "setting": "[3]", "value": "positive response"}, {"measurement": "POD, Calcein AM readout", "setting": "[3]; human", "value": "below 30 μM"}]}
{"molecule": "c1ccc2c(c1)ccc1ccccc12", "note": "[phenanthrene, Phenanthrene]", "values": [{"measurement": "Effect on beat frequency (in words)", "setting": "[2]", "value": "positive but generally weak effect"}]}
{"molecule": "c1ccc2c(c1)Cc1ccccc1-2", "note": "[fluorene, Fluorene]", "values": [{"measurement": "Cardiotoxic selectivity for peak frequency (selective = ratio ≥3)", "setting": "[1]; [5]", "value": "selective"}, {"measurement": "Effect on beat frequency (in words)", "setting": "[2]", "value": "positive but generally weak effect"}]}
{"molecule": "N#CCCNCCC#N", "note": "[3,3′-iminodipropionitrile, 3,3′-Iminodipropionitrile]", "values": [{"measurement": "Response in the Calcein AM readout", "setting": "[3]; [6]", "value": "positive response"}]}
{"molecule": "Brc1ccc(Oc2ccc(Br)cc2Br)c(Br)c1", "note": "[2,2′,4,4′-tetrabromodiphenyl ether, 2,2′4,4′-Tetrabromodiphenyl ether]", "values": [{"measurement": "Cardiotoxic selectivity for peak frequency (selective = ratio ≥3)", "setting": "[1]; [5]", "value": "selective"}]}
{"molecule": "Phenol, isopropylated, phosphate (3:1)", "values": [{"measurement": "Cardiotoxic selectivity for peak frequency (selective = ratio ≥3)", "setting": "[1]", "value": "selective"}, {"measurement": "Shape of concentration response for cardiomyocyte peak frequency", "setting": "[2]", "value": "non-monotonic concentration responses"}]}
{"molecule": "C=C(C)[C@H]1Cc2c(ccc3c2O[C@@H]2COc4cc(OC)c(OC)cc4[C@@H]2C3=O)O1", "note": "[rotenone, Rotenone]", "values": [{"measurement": "POD values in most other endpoints queried, including cytotoxicity", "setting": "[2]; endpoints other than JC-10 at 30 min", "value": "below 30 μM"}, {"measurement": "Ca2+-flux phenotype in words", "setting": "[2]", "value": "Negative inotropic effects"}, {"measurement": "Cytotoxicity (in words)", "setting": "[3]", "value": "highly cytotoxic"}]}
{"molecule": "CCCCC(CC)COP(=O)(Oc1ccccc1)Oc1ccccc1", "note": "(centres unmarked) [2-ethylhexyl diphenyl phosphate, 2- Ethylhexyl diphenyl phosphate (EHDP)]", "values": [{"measurement": "Effect on mitochondria / mitochondria potential (in words)", "setting": "[4]", "value": "selectively decreased mitochondria potential"}]}
{"molecule": "COc1ccc2cc3[n+](cc2c1OC)CCc1cc2c(cc1-3)OCO2", "note": "[berberine chloride, Berberine chloride, reference compound]", "values": [{"measurement": "Cardiotoxic selectivity for peak frequency (selective = ratio ≥3)", "setting": "[1]; [5]", "value": "selective"}, {"measurement": "Ca2+-flux phenotype in words", "setting": "[2]", "value": "decrease in the peak frequency concomitant with an increase in the average peak width"}]}
{"molecule": "CC1(C)C(C=C(Cl)Cl)C1C(=O)OCc1cccc(Oc2ccccc2)c1", "note": "(centres unmarked) [permethrin, Permethrin]", "values": [{"measurement": "Cardiotoxic selectivity for peak frequency (selective = ratio ≥3)", "setting": "[1]; [5]", "value": "selective"}]}
{"molecule": "O=P(Oc1ccccc1)(Oc1ccccc1)Oc1ccccc1", "note": "[triphenyl phosphate, Triphenyl phosphate]", "values": [{"measurement": "Effect on mitochondria / mitochondria potential (in words)", "setting": "[4]", "value": "selectively decreased mitochondria potential"}]}
{"molecule": "CC1(C)[C@H](C(=O)O[C@H](C#N)c2cccc(Oc3ccccc3)c2)[C@@H]1C=C(Br)Br", "note": "[deltamethrin, Deltamethrin]", "values": [{"measurement": "Cardiotoxic selectivity for peak frequency (selective = ratio ≥3)", "setting": "[1]; [5]", "value": "selective"}]}
{"molecule": "CC(C)[C@@H]1NC(=O)[C@H](C)OC(=O)[C@@H](C(C)C)NC(=O)[C@@H](C(C)C)OC(=O)[C@H](C(C)C)NC(=O)[C@H](C)OC(=O)[C@@H](C(C)C)NC(=O)[C@@H](C(C)C)OC(=O)[C@H](C(C)C)NC(=O)[C@H](C)OC(=O)[C@@H](C(C)C)NC(=O)[C@@H](C(C)C)OC1=O", "note": "[valinomycin, Valinomycin, reference compound]", "values": [{"measurement": "Effect on mitochondria / mitochondria potential (in words)", "setting": "[4]", "value": "strong effect"}, {"measurement": "Cytotoxicity (in words)", "setting": "[3]", "value": "highly cytotoxic"}]}
{"molecule": "c1ccc2c(c1)-c1cccc3c1c-2cc1ccccc13", "note": "[benzo(b)fluoranthene, Benzo(b)fluoranthene]", "values": [{"measurement": "Effect on beat frequency (in words)", "setting": "[2]", "value": "positive but generally weak effect"}, {"measurement": "Response in the Calcein AM readout", "setting": "[3]; [6]", "value": "positive response"}]}
{"molecule": "c1ccc2c(c1)cc1ccc3cccc4ccc2c1c34", "note": "[benzo(a)pyrene, Benzo(a)pyrene]", "values": [{"measurement": "Effect on beat frequency (in words)", "setting": "[2]", "value": "positive but generally weak effect"}]}
{"molecule": "O=C(O)CCCC[C@@H]1SC[C@@H]2NC(=O)N[C@@H]21", "note": "[biotin, Biotin, reference compound]", "values": [{"measurement": "Typical phenotypic response of calcium-flux signal trace", "setting": "[2]", "value": "unaffected regular Ca2+-flux"}, {"measurement": "Ca2+-flux phenotype in words", "setting": "[2]", "value": "regular beating pattern"}]}
{"molecule": "c1ccc2cc3c(cc2c1)-c1cccc2cccc-3c12", "note": "[benzo(k)fluoranthene, Benzo(k)fluoranthene]", "values": [{"measurement": "Typical phenotypic response of calcium-flux signal trace", "setting": "[2]", "value": "mild increases in peak frequency"}, {"measurement": "Effect on beat frequency (in words)", "setting": "[2]", "value": "positive but generally weak effect"}, {"measurement": "Response in the Calcein AM readout", "setting": "[3]; [6]", "value": "positive response"}]}
{"molecule": "Brc1ccc(Oc2cc(Br)c(Br)cc2Br)c(Br)c1", "note": "[2,2′,4,4′,5-pentabromodiphenyl ether, 2,2′,4,4′,5-Pentabromodiphenyl ether]", "values": [{"measurement": "Cardiotoxic selectivity for peak frequency (selective = ratio ≥3)", "setting": "[1]; [5]", "value": "selective"}]}
{"molecule": "c1cc2c3c(c1)ccc1cccc(c13)C2", "note": "[4-H-cyclopenta(d,e,f)phenanthrene, 4-H-Cyclopenta(d,e,f)phenanthrene]", "values": [{"measurement": "Effect on beat frequency (in words)", "setting": "[2]", "value": "positive but generally weak effect"}]}
{"molecule": "c1ccc2cc3c(ccc4ccccc43)cc2c1", "note": "[benz(a)anthracene, Benz(a)anthracene]", "values": [{"measurement": "Effect on beat frequency (in words)", "setting": "[2]", "value": "positive but generally weak effect"}, {"measurement": "Response in the Calcein AM readout", "setting": "[3]; [6]", "value": "positive response"}]}
{"molecule": "CCOP(=S)(OCC)Oc1ccc([N+](=O)[O-])cc1", "note": "[parathion, Parathion]", "values": [{"measurement": "Effect on mitochondria / mitochondria potential (in words)", "setting": "[4]", "value": "selectively decreased mitochondria potential"}]}
{"molecule": "CCOP(=S)(OCC)Oc1nc(Cl)c(Cl)cc1Cl", "note": "[chlorpyrifos, Chlorpyrifos]", "values": [{"measurement": "Effect on mitochondria / mitochondria potential (in words)", "setting": "[4]", "value": "selectively decreased mitochondria potential"}]}
{"molecule": "CN1C(=O)CN=C(c2ccccc2)c2cc(Cl)ccc21", "note": "[diazepam, Diazepam, reference compound]", "values": [{"measurement": "Effect on peak frequency (in words)", "setting": "[2]", "value": "altered peak frequency"}]}
{"molecule": "CC(C)(C)C(O)(CCc1ccc(Cl)cc1)Cn1cncn1", "note": "(centres unmarked) [tebuconazole, Tebuconazole]", "values": [{"measurement": "Effect on mitochondria / mitochondria potential (in words)", "setting": "[4]", "value": "selectively decreased mitochondria potential"}]}
